Results published in ChEMBL document CHEMBL1133574, “alpha-Substituted N-(sulfonamido)alkyl-beta-aminotetralins: potent and selective neuropeptide Y Y5 receptor antagonists” (J Med Chem, 2000).

Molecular target: T1, Neuropeptide Y receptor type 5 (Homo sapiens, UniProt Q15761)
T1 sequence (Q15761 whole entry): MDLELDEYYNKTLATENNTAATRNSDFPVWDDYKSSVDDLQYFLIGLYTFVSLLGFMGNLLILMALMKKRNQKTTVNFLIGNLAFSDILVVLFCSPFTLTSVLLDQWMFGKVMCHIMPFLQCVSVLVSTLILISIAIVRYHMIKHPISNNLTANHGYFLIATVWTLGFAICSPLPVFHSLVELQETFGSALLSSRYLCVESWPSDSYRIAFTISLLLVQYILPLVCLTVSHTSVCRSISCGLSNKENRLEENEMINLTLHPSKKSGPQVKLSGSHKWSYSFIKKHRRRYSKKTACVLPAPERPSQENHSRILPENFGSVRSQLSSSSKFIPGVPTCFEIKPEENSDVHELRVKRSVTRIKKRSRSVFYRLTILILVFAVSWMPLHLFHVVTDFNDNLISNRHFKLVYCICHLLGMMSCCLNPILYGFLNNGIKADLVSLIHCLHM
Experiment: Inhibition of [125I]-PYY binding to recombinant NPY Y5 receptor on HEK293 cell membranes.
Format: cell-based

IC50 [nM] | Compound
40 | O=C(NC1CCc2cc(F)ccc2C1Cc1cccnc1)[C@H]1CC[C@H](CNS(=O)(=O)c2ccccc2)CC1 (some centres not stated)
19 | O=S(=O)(NC[C@H]1CC[C@H](CNC2CCc3cc(F)ccc3C2Cc2cccnc2)CC1)c1ccccc1F (some centres not stated)
1 | N[C@@H](CCCCNS(=O)(=O)c1ccccc1F)CNC1CCc2cc(O)ccc2C1Cc1cccnc1 (some centres not stated)
75 | C=CCC1c2ccc(F)cc2CCC1NC(=O)[C@H]1CC[C@H](CNS(=O)(=O)c2ccccc2)CC1 (some centres not stated)
11 | O=C(CN1CCC(NS(=O)(=O)c2ccccc2)C1)NC1CCc2cc(F)ccc2C1Cc1cccnc1 (configuration not stated)
21 | C=CCC1c2ccc(F)cc2CCC1NC[C@H]1CC[C@H](CNS(=O)(=O)c2ccccc2)CC1 (some centres not stated)
10 | O=C(CN1CCC(NS(=O)(=O)c2ccccc2)CC1)NC1CCc2cc(F)ccc2C1Cc1cccnc1 (configuration not stated)
11 | COc1ccc2c(c1)CCC(NC(=O)[C@H]1CC[C@H](CNS(=O)(=O)c3ccccc3F)CC1)C2Cc1cccnc1 (some centres not stated)
7 | O=S(=O)(NC[C@H]1CC[C@H](CNC2CCc3cc(O)ccc3C2Cc2cccnc2)CC1)c1ccccc1F (some centres not stated)
5 | O=C(CN1CC[C@H](NS(=O)(=O)c2ccccc2)C1)NC1CCc2cc(F)ccc2C1Cc1cccnc1 (some centres not stated)
5 | C=CCC1c2ccc(O)cc2CCC1NC[C@H]1CC[C@H](CNS(=O)(=O)c2ccccc2)CC1 (some centres not stated)
11 | COc1ccc2c(c1)CCC(NC(=O)[C@H]1CC[C@H](CNS(=O)(=O)c3ccccc3)CC1)C2Cc1cccnc1 (some centres not stated)
27 | O=S(=O)(NC[C@H]1CC[C@H](CNC2CCc3cc(F)ccc3C2Cc2cccnc2)CC1)c1ccccc1 (some centres not stated)
10 | COc1ccc2c(c1)CCC(NC[C@H]1CC[C@H](CNS(=O)(=O)c3ccccc3)CC1)C2Cc1cccnc1 (some centres not stated)
900 | COc1ccc2c(c1)CCC(NCCc1ccc(OC)c(OC)c1)C2Cc1ccccc1 (configuration not stated)
27 | O=C(CN1CC[C@@H](NS(=O)(=O)c2ccccc2)C1)NC1CCc2cc(F)ccc2C1Cc1cccnc1 (some centres not stated)
443 | COc1ccc2c(c1)CCC(NC[C@H]1CC[C@H](CNS(=O)(=O)c3ccc4ccccc4c3)CC1)C2Cc1ccccc1 (some centres not stated)
53 | COc1ccc2c(c1)CCC(NCCCCCCNS(=O)(=O)c1ccccc1)C2Cc1cccnc1 (configuration not stated)
23 | COc1ccc2c(c1)CCC(NC[C@H]1CC[C@H](CNS(=O)(=O)c3ccccc3F)CC1)C2Cc1cccnc1 (some centres not stated)
12 | O=C(NC1CCc2cc(F)ccc2C1Cc1cccnc1)[C@H]1CC[C@H](CNS(=O)(=O)c2ccccc2F)CC1 (some centres not stated)
22 | N[C@@H](CCCCNS(=O)(=O)c1ccccc1F)C(=O)NC1CCc2cc(F)ccc2C1Cc1cccnc1 (some centres not stated)
337 | COc1ccc2c(c1)CCC(NC[C@H]1CC[C@H](CNS(=O)(=O)c3ccc4ccccc4c3)CC1)C2Cc1cccnc1 (some centres not stated)
